# Patent publication US20060194947A1, “Peptide gap junction modulators” (priority 2002, published 2006)
# Like-named read-outs stand apart in the source and are kept apart here. Where a SMILES comes first, the peptide text is derived from it. [ ]: non-standard residue; d: D form. The star is where a group is joined. Bz = O=C(c1ccccc1)*
# How the values were obtained:
# [1] = tested on: calcium-induced arrhythmias (2nd degree AV block); assay: Standard calcium-induced arrhythmia assay; type: in vivo, Male NMRI mice; conditions: mice, i.v. 3 min before CaCl2 infusion; (tarr(testcompound)−tarr(vehicle))×100/tarr(vehicle)
# Experimental: Peptides suitable for administration to cardiac cells can be identified in an in vivo model of calcium-induced arrhythmias according to the model of Lynch et al. (1981) J Cardiovasc. Pharmacol. 3: 49-60. Mice (25-30 g) are anaesthetized with a neurolept anaesthetic combination and an i.v. cannula is inserted into the tail vein. A lead II ECG signal is recorded continuously by positioning a stainless steel ECG electrodes on the right forelimb and on the left hind limb. The ground electrode is placed on the right hind limb. The signal is amplified (×5.000-10.000) and filtered (0.1-150 Hz) via a Hugo Sachs Electronic model 689 ECG module. The analog signal is digitized via a 12 bit data acquisition board (Data Translation model DT321) and sampled at 1000 Hz using the Notocord HEM 3.1 software for Windows NT. After a 10-minute equilibration period, the test sample of peptide is injected into the tail vein. Mice pre-treated with buffer are tested as a measure of the control level in untreated animals. The injection volume is 100 μl in all experiments.
# Infusion of CaCl2 (30 mg/ml, 0.1 ml/min≈100 mg/kg/min (calcium chloride-2-hydrate, Riedel-de Haën, Germany)) is started 3 min after i.v. administration of drug or vehicle. The time lag to onset of 2nd degree AV-block is determined as the time from the start of CaCl2 infusion until the first arrhythmic event occurs. An event of 2nd degree AV-block is defined as intermittent failure of the AV conduction characterised by a P-wave without the concomitant QRS complex.
# Responses are expressed relative to the time until 2nd degree AV-block occurred in vehicle treated mice. The maximal effect of compounds (e.g., peptides, AAP, AAP10 or controls) is determined. […] Preferably, […], the peptides provide at least about 40% of the activity of AAP, for example at least about 50% of the activity of AAP, such as about 60% of the activity of AAP, for example at least about 70% of the activity of AAP, such as at least about 80% of the activity of AAP, for example at least about 90% of the activity of AAP, for example at least about substantially the same activity of AAP, such as about 110% of the activity of AAP, for example at least about 120% of the activity of AAP, such as at least about 130% of the activity of AAP, for example at least about 140% of the activity of AAP, such as about 150% of the activity of AAP, for example at least about 160% of the activity of AAP, such as at least about 170% of the activity of AAP, for example at least about 180% of the activity of AAP, preferably at least about 190% of the activity of AAP, more preferably at least about 200 or greater % of the activity of AAP (i.e., the peptides show time lags of approximately the same duration as induced by AAP).
# The anti-arrhythmic effect of the dipeptides was determined in a model of calcium-induced arrhythmias according to the model of Lynch et al.. Male NMRI mice (25-30 g; Bomholdtgaard, LI. Skendsved, Denmark) were anaesthetised with a neurolept anaesthetic combination (Hypnorm® (fentanyl citrate 0.315 mg/ml and fuanisone 10 mg/ml)+midazolam (5 mg/ml)). Commercial solutions of Hypnorm® and midazolam were diluted 1:1 in distilled water, and one part diluted Hypnorm® was mixed with one part diluted midazolam. Anaesthesia was induced by s.c. administration of this solution in a dose of 50-75 μl/10 gram mouse.
# An i.v. cannula was inserted into the tail vein. The lead II ECG signal was recorded continuously by positioning of stainless steel ECG electrodes on the right forelimb and on the left hind limb. The ground electrode was placed on the right hind limb. The signal was amplified (×5.000-10.000) and filtered (0.1-150 Hz) via a Hugo Sachs Electronic model 689 ECG module. The analogue signal was digitised via a 12-bit data acquisition board (Data Translation model DT321) and sampled at 1000 Hz using the Notocord HEM 3.1 software for Windows NT. […]
# [2] = Oral bioavailability, pharmacokinetic screening (i.v./p.o. cross-over, LC/MS/MS); type: in vivo; conditions: male, rat, plasma, Sprague-Dawley rats
# Excerpt: The water used for these experiments was of highest quality obtained from a reversed osmosis primary system in combination with a Milli-Q water secondary treatment system (Millipore, Bedford, Mass., USA). Methanol was super gradient quality obtained from Labscan Ltd. (Dublin, Ireland). Formic acid p.a. (98-100%) was obtained from Merck (Darmstadt, Germany). Heptafluorobuturicacid, HPLC grade wAs obtained from Pierce (Rockford, Ill., USA). EDTA stabilised plasma from rat (Sprague-Dawley) was obtained from Harlan Sera Lab Ltd. (Loughborough, UK). Blood samples were collected in potassium EDTA coated microtainers from BD Vacutainer Systems (Plymouth, UK). Sample preparation by ultra filtration was performed using Microcon centrifugal filter devices with a molecular weight cut off of 3000 obtained from Millipore (Bedford, Mass., USA).
# The LC/MS/MS analysis was performed on a Waters Alliance 2790 HPLC instrument in combination with a Quattro Ultima mass spectrometer from Micromass (Manchester, UK). Both the LC and MS were controlled by MassLynx 3.5 software. The LC separations prior to MS/MS detection were performed on an XTerra MS C18 (2.0×50 mm), 3.5 μm particles, (Waters, Milford, Mass., USA).
# Twelve male Sprague-Dawley rats (approx 350 g) were obtained from M&B (Denmark) and catheters were inserted into the femoral vein and artery during Hypnorm®-Dormicum® anaesthesia. After surgery, the rats were allowed to recover for five days before drug administration was initiated.
# The dipeptides (Compound 22, Compound 21, Compound 23, Compound 96, Compound 95 and Compound 54) were obtained as the TFA salts and dissolved in PBS (2.6 mM KCl, 137 mM NaCl, 1.5 mM KH2PO4 and 8.2 mM Na2HPO4 adjusted to pH=7.4) to give concentrations of 500 μM. The dosing volumes were 1 mL/kg corresponding to doses of 500 nmol/kg, respectively. After each experiment the dosing solutions were diluted in 0.5% formic acid in water and analysed by LC/MS/MS for their content of drug substance. The concentrations of drug substance in the dosing solutions were calculated from the responses of standards in the range from 1 to 1000 nM.
# The drug substances were administered to two animals as i.v. and p.o. bolus in a cross-over study design. The p.o. dose was administered to rats fasted for a 17 hours period prior to drug administration. The animals were allowed to rest for 48 hours in between drug administrations. After the first experiment the rats received a blood transfusion with heparin treated blood.
# Prior to drug administration (5 min) the rats received 500 IU heparin as an i.v. bolus and a control blood sample was collected. After drug administration blood samples of approx. 250 μL were collected from the femoral artery at the following time points; before dose (B.D.), 5, 15, 30, 60, 120, 180 and 240 min after i.v. administration and at B.D., 10, 30, 50, 80, 120, 180, 240, and 300 min after p.o. administration. The blood samples were stored on ice until centrifugation for 5 min at 10.000×g (4° C.) and the plasma (100 μL) were transferred to 1.5 mL polypropylene tubes and stored at −20° C. until sample preparation and LC/MS/MS analysis.
# The plasma samples were thawed on ice, and 100 μL plasma was mixed with 100 μL 1% (v/v) formic acid and transferred to microcon YM-3 filter units. The samples were then centrifuged for 1 hr at 8.300×g at room temperature. The filtrates were collected in 300 μL autosampler vials and stored at 4° C. until injection (40 μL) onto the LC column. The chromatography was performed at 50° C. using a linear gradient from 100% buffer A (0.1% formic acid in water) to 100% buffer B (0.1% formic acid in acetonitrile) in 4 min, followed by 3 min wash using buffer B and finally a reequilibration period for 7 min using buffer A. The detection of the drug substances were performed by MS/MS using argon as collision gas (1.3×10^−3 mbar). […]
# [3] = tested on: Human primary osteoblasts; assay: Osteoblast activity (ALP assay); type: cell-based; conditions: cell lysate, stimulated 1×10^−13 to 1×10^−6 for the last 4 days, compared to vehicle treated control cultures
# Experimental: Cells also can be measured for the presence of alkaline phosphatase activity to provide a general measure of osteoblast activity. In one aspect, cells are plated in 96-well plates at a concentration of 8000 cells/well (hOB) or 3000 cells/well (ROS) in 200 μl normal culture medium. On day 4 (or day 3 for ROS cells), cells are washed with 200 μl MEM, 0.1% BSA (Sigma, Cat.No. A-9418). Samples comprising a suitable medium (e.g., 200 μl MEM, 0.1% BSA) containing various concentrations of peptides, control, AAP or AAP10 are added to the cells, and culture is continued for about 4 days (2 days for ROS cells).
# On about day 8 (preferably day 5 for ROS cells), cells are assayed for alkaline phosphatase using an Alkaline Phosphatase (ALP) assay such as is known in the art. ALP assays are generally colorimetric endpoint methods for measuring enzyme activity, and can be performed using an Alkaline Phosphatase Kit (Sigma, Cat.No. 104-LL). Preferably, cells are washed once with 200 μl PBS+Ca, Mg, 100 μl Alkaline Buffer Solution is added to each well and the cells are incubated at 37° C. for 10 minutes. 100 μl Substrate Solution is subsequently added to each well and the plate is incubated at 37° C. for 30 min. 100 μl 2.0 N NaOH is added to each well to stop the reaction. Absorbance is measured using a plate reader at 405 nm.
# Human primary osteoblasts were obtained from bone marrow biopsies of the posterior iliac spine from voluntary donors. Cells were used at 6 weeks of culturing. Cells were cultured in 24-well plates in an 8 days process and stimulated with the test compounds in concentrations from 1×10^−13 to 1×10^−6 for the last 4 days of the experiment. Cell lysate was collected for determination of ALP activity. hOB cells from 10-15 donors were used for the experiments. For ALP measurements a commercially available kit (Alkaline Phosphatase Kit, Sigma-Aldrich Denmark A/S) was used. All determinations were performed according to the manufacturer's recommendations.
# ALP was determined on cell lysate collected at termination of the experiment. Measurements were compared with and to vehicle treated control cultures.
# Data are presented as means and standard deviations or medians and percentiles as appropriate. Two-way ANOVA is performed using Fisher's LSD test for post-hoc comparisons, using a 0.05 level of significance.
# [4] = oral, TFA salts in PBS, 500 nmol/kg i.v. and p.o. bolus, p.o. fasted 17 hours, dose normalised AUCpo/AUCiv, read-out: F (%) Mean (mean bioavailability)
# [5] = oral administration 500 nmol/kg, read-out: bioavailability
"bioavailability [2, 4]","bioavailability [2, 5]",Molecule,% response (time lag to onset of 2nd degree AV block relative to vehicle) [1],ALP activity relative to vehicle control (ratio) [3]
2.6%,2 to 8%,"COc1ccc(C(=O)NCCCC[C@@H](N)C(=O)NCC(=O)O)cc1 [Compound 21, H-D-Lys(4-methoxybenzoyl)-Gly-OH]",55.0%,–
31%,10 to 31%,"N[C@H](CCCCNC(=O)c1ccc([N+](=O)[O-])cc1)C(=O)NCC(=O)O [Compound 22, H-D-Lys(4-nitrobenzoyl)-Gly-OH]",52.0%,1.12
7.2%,2 to 8%,"CC(C)(C)c1ccc(C(=O)NCCCC[C@@H](N)C(=O)NCC(=O)O)cc1 [Compound 54, H-D-Lys(4-t-butylbenzoyl)-Gly-OH]",61.3%,–
29%,10 to 31%,"COc1ccc(CNC(=O)C[C@@H](N)C(=O)N[C@@H](C)C(=O)O)cc1 [Compound 95, H-D-Asn(NH(4-methoxybenzyl))-Ala-OH]",0.3%,1.14
15%,10 to 31%,"C[C@H](NC(=O)[C@H](N)CC(=O)NCc1ccc([N+](=O)[O-])cc1)C(=O)O [Compound 96, H-D-Asn(NH(4-nitrobenzyl))-Ala-OH]",54%,–
–,–,H-Asn(NH(4-methoxybenzyl))-D-Ala-OH [Compound 80],33%,–
–,–,H-Gly-Lys(4-cyanobenzoyl)-OH [Compound 3],37.0%,–
–,–,H-Gly-Lys(4-methoxybenzoyl)-OH [Compound 4],69.0%,–
–,–,H-Gly-Lys(4-nitrobenzoyl)-OH [Compound 1],52.0%,1.08
–,–,H-Lys(4-nitrobenzoyl)-Gly-OH [Compound 7],40%,–

Molecule,"bioavailability [2, 4]","bioavailability [2, 5]",% response (time lag to onset of 2nd degree AV block relative to vehicle) [1],ALP activity relative to vehicle control (ratio) [3]
"N[C@H](CCCCNC(=O)c1ccccc1)C(=O)NCC(=O)O [Compound 23, H-D-Lys(benzoyl)-Gly-OH] (H-[dK](Bz)-Gly-OH)",10%,10 to 31%,−8.0%,1.08
